# Reference: US10543262B2, “Combination therapy utilizing P2X7 peptides” (BIOSCEPTRE (AUST) PTY LTD, priority 2011, dated 2020)
# System: nfP2X7 receptors
# Test: ELISA of specific anti-nfP2X7 antibody response in patient serum after immunisation with peptide-KLH conjugate
# Format: in vivo, human
# Protocol: Peptide immunogen was synthesised to high purity in the form GHNYTTRNILPGLNITC (SEQ ID NO:2) to which was added the cross-linker maleimidocaproyl-N-hydroxysuccinimide (MCS) at the C-terminal Cys residue. The peptide was cross-linked to a carrier protein Keyhole Limpet Hemocyanin (KLH) such that the average percentage of peptide to total peptide-protein conjugate was 40%. This peptide or the alternative peptide […] (SEQ ID NO:5) similarly conjugated to KLH constituted selective epitope targets, primary and compound respectively that enabled differentiation of the nfP2X7 receptors to be made from native receptors.
# The peptide-protein conjugate was added at a concentration of 2.5 mg/mL conjugate (1 mg/mL peptide) dropwise with thorough mixing in the adjuvant in an amount equal to 0.5 mL conjugate to 0.75 mL adjuvant containing 0.5 mg of target peptide epitope.
# The immunisation schedule consisted of a primary inoculation (two injections subcutaneously and two injections intramuscularly) of a total of 0.5 mg peptide followed a month later with a boost applied the same way with 0.3 mg peptide. Serum samples were collected immediately prior to and a week post injections. Inoculation is ideally administered no less than a month after the final infusion of anti-nfP2X7 antibody to ensure no sequestration of the immunogen by residual specific anti-nfP2X7 antibody infusate.
# Specific anti-nfP2X7 antibody responses were measured by ELISA. In brief, the ELISA plate was coated with specific target peptide epitope, either naked or conjugated to a carrier other than the one against which the antibody response was generated, over which patient serum is added in a descending concentration. After washing, an appropriate secondary anti-human antibody (anti-IgM or anti-IgG types) is applied to detect and determine the concentration of specific human anti-nfP2X7 antibody present in the patient serum in the form of IgM or IgG.
# [1] = following the primary inoculation (0.5 mg peptide)
sequence,measurement,setting,value
GHNYTTRNILPGLNITC,specific anti-nfP2X7 IgM concentration in patient serum (ELISA),following the boost (0.3 mg peptide),returned to a baseline of zero
same,specific anti-nfP2X7 IgG concentration in patient serum (ELISA),"following the boost, provided no nfP2X7 receptor sink is present on extant tumor",higher concentration than the original IgM
same,specific anti-nfP2X7 IgG in patient serum (ELISA),[1],no IgG is detectable
same,specific anti-nfP2X7 IgM in patient serum (ELISA),[1],a small amount of IgM is detected
same,circulating anti-nfP2X7 antibody response in serum (ELISA),"patient with moderate tumor burden, Week 13, 9 weeks post boost",small level
same,circulating antibody present in serum (ELISA),"patient with moderate tumor burden, intermediate measurements Weeks 5 to 12",little circulating antibody was present
same,antibodies to the peptide detected in serum (ELISA),"patient with moderate tumor burden, pre-boost serum at Week 4, 4 weeks post initial immunisation",No antibodies were detected
same,circulating antibody levels detected in serum (ELISA),"patient with very small residual tumor burden, Week 5, 1 week post boost",much higher than in the patient who had a moderate tumor mass
same,specific endogenous anti-nfP2X7 antibody detected in the serum,"patients without nfP2X7 receptor sink (original tumor cleared), after boost",~5 mg/kg
